According to US6610649B2, “Insulin C-peptides” (Creative Peptides Sweden AB, priority 1996, dated 2003):

Key:
[1] = system: Na^+K^+ATPase; assay: Stimulation of Na+K+ATPase activity of rat renal tubule cells (microdissected proximal convoluted tubules, 32P-ATP with or without ouabain); assay type: cell-based; conditions: for activity of peptides containing D-amino acid isomers (in words): Na^+K^+ATPase of rat renal tubule segments; for relative stimulatory activity on Na^+K^+ATPase activity: 5-10^−7 M peptide, rat C-peptide 1 at the same concentration set at 100%, tubules incubated 30 minutes at room temperature; for stimulation of Na^+K^+ATPase activity compared with whole C-peptide (in words): renal tubule cells in vitro
Method: Fragments of the invention have been proven to stimulate Na^+K^+ATPase activity to varying extent. […] As much as 90% of the effect is achieved within 3 minutes. […] Combinations of Peptides A-D with Peptides E or F result in a stimulation of the enzyme activity that is greater than that for either peptide alone. For detailed examples of the stimulatory effects of the above peptides, see Example 1, below.
In the case of peptide A certain studies on Na^+K^+ATPase activity, studying the ability of the peptide fragments to stimulate the activity of Na^+K^+ATPase of rat renal tubule segments, have shown that one or more of the central tri-glycine residues may be important, and preferred peptide fragments, where peptide A is concerned, thus include at least one, and more preferably, at least two, of the central tri-glycine residues. Thus, in addition to peptides B, C and D mentioned above, representative exemplary peptide fragments include GGGPGAG (SEQ ID NO. 8), GGGPG (SEQ ID No. 9), GGGP (SEQ ID NO. 10), GGP and GGPG (SEQ ID NO. 11).
The stimulatory effect of Peptides A-F on Na^+K^+ATPase activity of rat renal tubule cells was examined. Single proximal convoluted tubules were prepared from rat kidneys by micro-dissection. The tubules were incubated for 30 minutes at room temperature with either of Peptides A-F or rat C-peptide 1. Na^+K^+ATPase activity was then measured following exposure of the tubules to hypotonic shock and incubation for 15 minutes in a medium containing ^32P-ATP in the presence or absence of oubain.
The stimulatory activity of 5-10^−7 M rat C-peptide 1 was set at 100%. For the same concentration of Peptides A-F the following relative activities were obtained: […]

[2] = system: cell surface of human renal tubule cells (C-peptide binding site); assay: Binding of rhodamine-labelled C-peptide to cultured human renal tubule cells, by fluorescence correlation spectroscopy; conditions: for effect of preincubation on binding of fluorescently labelled C-peptide (in words): preincubation of cells with the unlabelled peptide
Method: When fluorescently labelled C-peptide is incubated with cells it binds to the cell surface. […] For a detailed example of the binding of Fragment E see Example 28, below.
The specific binding of Peptide E to the cell surface is illustrated as follows. Human biosynthetic C-peptide (Eli-Lilly, Inc., Indianapolis, USA) was labelled with tetramethylrhodamine using the activated reagent tetramethylrhodamine succinimidyl ester (FluoReporter® Protein labelling kit, Art. no. F-6163; Molecular Probes Europe BV, Leiden, Netherlands). The coupling reaction was performed at pH 8.3 (0.1 M NaHCO3 buffer) with a five-fold stoichiometrical excess of activated reagent to C-peptide. The tetramethylrhodamine group has absorption/emission maxima at 555/580 nm, respectively and is incorporated in the N-terminus of the C-peptide. Labelled C-peptides were purified by gel filtration (desalting against 50 mM phosphate buffer, 0.1 M NaCl, pH 7.4) on a NAP-5 column; Pharmacia Biotech Uppsala, Sweden) and subsequently by preparative reverse phase chromatography (250 mm Kromasil C8 column, diam. 4.6 mm, 7 μm particle size, 10 nm pore size, Eka-Nobel, Surte, Sweden) using a 1090 Hewlett Packard HPLC chromatography system (Grenoble, France) (FIG. 1). Eluted material was immediately adjusted to pH 8 by addition of ammonia and subsequently lyophilized.
Cultured human renal tubule cells (proximal convoluted tubules, PCT) were incubated with the rhodamine labelled C-peptide synthesized as described above. The cells were prepared from the healthy part of a human kidney removed surgically because of hypernephroma. The outer 150 μm of the renal cortex was removed in a microtome and incubated in a collagenase solution (0.05%) at 37° C. for 15 minutes. A tissue suspension was centrifuged and rinsed twice with 0.01% soybean trypsin inhibitor-solution (Gibco Laboratories, Grand Island, N.Y., USA) and a concentrate of PCT fragments and PCT cells were plated onto glass cover slips. The cells were cultured in Dulbecco's Modified Eagle's Medium [DMEM, 20 mmol/l 4-(2-hydroxyethyl)-1-piperazineethane sulphoric acid (Hepes), 24 mmol/l NaHCO3 50,000 IU/l penicillin and 50 mg/l streptomycin, pH 7.4] with 10% fetal bovine serum (Gibco) in an incubator at 37° C. with 95% O2, and 5% CO2. After 28 hours in culture the medium was changed to DMEM with 1% fetal bovine serum. The cells were examined approximately 18-36 hours later.
The interaction between C-peptide and the cell surface of the tubule cells was recorded using fluorescence correlation spectroscopy (11). […] In contrast, when the cells were preincubated with 5 μM of Peptide E, C-peptide binding after 50 minutes was no more than 12%.

Substance	relative stimulatory activity on Na^+K^+ATPase activity [1] [%]	effect of preincubation on binding of fluorescently labelled C-peptide (in words) [2]	further results
D-LG	–	–	activity of peptides containing D-amino acid isomers (in words) [1]: active
D,L-LG	–	–	activity of peptides containing D-amino acid isomers (in words) [1]: active
ELGGGP [Peptide C, fragment of Peptide A]	46±3	–	–
GGPGA [Peptide D, fragment of Peptide A]	65±4	–	–
EGSLQ [Peptide E, C-terminal fragment of human insulin C-peptide]	110±3	prevent binding of the fluorescently marked C-peptide	stimulation of Na^+K^+ATPase activity compared with whole C-peptide (in words) [1]: comparable to or greater than that for the whole molecule; C-peptide remaining bound after later addition of the peptide ([2]; C-peptide bound for 50 minutes, then peptide added, within 4 hours): 14%; C-peptide binding after 50 minutes ([2]; cells preincubated with 5 μM of the peptide, C-peptide 5 nM): no more than 12%
GSLQ [Peptide F, fragment of Peptide E]	96±2	prevent binding of the fluorescently marked C-peptide	stimulation of Na^+K^+ATPase activity compared with whole C-peptide (in words) [1]: comparable to or greater than that for the whole molecule
ELGG [Peptide B, fragment of Peptide A]	36±2	–	–
EAEDLQVGQVELGGGPGAGSLQPLALEGSLQ (N-terminal tetramethylrhodamine label) [C-peptide, human biosynthetic C-peptide (Eli-Lilly)]	–	prevents binding of the fluorescently labelled C-peptide	C-peptide bound to the cell surface ([2]; C-peptide 5 nM, within 50 minutes, no competitor): 92%
ELGGGPGAG [Peptide A, fragment of human insulin C-peptide]	88±3	–	–
